According to patent US20100298141A1, “SUBSTITUTED PYRIDINE N-OXIDE HERBICIDES” (E. I. DU PONT DE NEMOURS AND COMPANY, priority 2007, published 2010):

Key:
downy bromegrass = test: Test D preemergence test; assay type: in vivo, Bromus tectorum; settings: scale 0 to 100
Outline: (§1)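 Seeds planted and treated preemergence with test chemicals formulated in a non-phytotoxic solvent mixture containing surfactant. A dash means no test result.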

Italian ryegrass = test: Test D preemergence test; assay type: in vivo, Lolium multiflorum; settings: scale 0 to 100
Outline: as §1

winter barley = test: Test D preemergence test; assay type: in vivo, Hordeum vulgare
Outline: as §1

yellow nutsedge = test: Test G preemergence test; assay type: in vivo, Cyperus esculentus; settings: scale 0 to 100
sorghum = test: Test G preemergence test; assay type: in vivo, Sorghum vulgare; settings: scale 0 to 100
field sandbur = test: Test G preemergence test; assay type: in vivo, Cenchrus incertus; settings: scale 0 to 100
littleseed canarygrass = test: Test D preemergence test; assay type: in vivo, Phalaris minor; settings: scale 0 to 100
Outline: as §1

spring wheat = test: Test D preemergence test; assay type: in vivo, Triticum aestivum; settings: scale 0 to 100
Outline: as §1

winter wheat = test: Test D preemergence test; assay type: in vivo, Triticum aestivum; settings: scale 0 to 100
Outline: as §1

yellow foxtail = test: Test G preemergence test; assay type: in vivo, Pennisetum glaucum; settings: scale 0 to 100
duck salad = test: Test B flooded paddy test; assay type: in vivo, Heteranthera limosa; settings: Flood, 250 g ai/ha, 13 to 15 days; scale 0 to 100, 0 no effect, 100 complete control
Outline: (§2)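 Test compounds are applied straight into paddy water held 3 cm above the soil surface, with that flood maintained for the whole test. After 13 to 15 days in the greenhouse, each species is scored visually relative to controls.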

soybean = test: Test G preemergence test; assay type: in vivo, Glycine max; settings: scale 0 to 100
wild oat = test: Test D preemergence test; assay type: in vivo, Avena fatua; settings: scale 0 to 100
Outline: as §1

corn = test: Test G preemergence test; assay type: in vivo, Zea mays; settings: scale 0 to 100
woolly cupgrass = test: Test G preemergence test; assay type: in vivo, Eriochloa villosa; settings: scale 0 to 100
barnyardgrass [1] = test: Test G preemergence test; assay type: in vivo, Echinochloa crus-galli; settings: scale 0 to 100
millet foxtail = test: Test G preemergence test; assay type: in vivo, Setaria italica; settings: scale 0 to 100
rice = test: Test B flooded paddy test; assay type: in vivo, Oryza sativa; settings: Flood, 250 g ai/ha, 13 to 15 days; scale 0 to 100, 0 no effect, 100 complete control
Outline: as §2

barnyardgrass [2] = test: Test B flooded paddy test; assay type: in vivo, Echinochloa crus-galli; settings: Flood, 250 g ai/ha, 13 to 15 days; scale 0 to 100, 0 no effect, 100 complete control
Outline: as §2

goosegrass = test: Test G preemergence test; assay type: in vivo, Eleusine indica; settings: scale 0 to 100
annual bluegrass = test: Test D preemergence test; assay type: in vivo, Poa annua; settings: scale 0 to 100
Outline: as §1

tall waterhemp = test: Test G preemergence test; assay type: in vivo, Amaranthus tuberculatos; settings: scale 0 to 100
itchgrass = test: Test G preemergence test; assay type: in vivo, Rottboellia cochinchinensis; settings: scale 0 to 100
field violet = test: Test D preemergence test; assay type: in vivo, Viola arvensis; settings: scale 0 to 100
Outline: as §1

umbrella sedge = test: Test B flooded paddy test; assay type: in vivo, Cyperus difformis; settings: Flood, 250 g ai/ha, 13 to 15 days; scale 0 to 100, 0 no effect, 100 complete control
Outline: as §2

blackgrass = test: Test D preemergence test; assay type: in vivo, Alopecurus myosuroides; settings: scale 0 to 100
Outline: as §1

Cn1nc(C(F)(F)F)c(CS(=O)(=O)c2ccc(Cl)c[n+]2[O-])c1OC(F)F [Compound 7]
70: Plant response rating, Rice, Transplanted (rice)
95: Plant response rating, Foxtail, Yellow (yellow foxtail; 125 g ai/ha) | Plant response rating, Bluegrass (annual bluegrass; 250 g ai/ha)
65: Plant response rating, Bluegrass (annual bluegrass; 125 g ai/ha)
50: Plant response rating, Foxtail, Yellow (yellow foxtail; 62 g ai/ha) | Plant response rating, Goosegrass (goosegrass; 31 g ai/ha)
35: Plant response rating, Bromegrass, Downy (downy bromegrass; 250 g ai/ha)
30: Plant response rating, Field Violet (field violet; 250 g ai/ha)
75: Plant response rating, Sandbur (field sandbur; 250 g ai/ha) | Plant response rating, Cupgrass, Woolly (woolly cupgrass; 125 g ai/ha)
80: Plant response rating, Cupgrass, Woolly (woolly cupgrass; 250 g ai/ha) | Plant response rating, Barnyardgrass (barnyardgrass [2]) | Plant response rating, Blackgrass (blackgrass; 250 g ai/ha)
60: Plant response rating, Cupgrass, Woolly (woolly cupgrass; 62 g ai/ha) | Plant response rating, Barnyardgrass (barnyardgrass [1]; 125 g ai/ha) | Plant response rating, Waterhemp (tall waterhemp; 62 g ai/ha)
100: Plant response rating, Canarygrass (littleseed canarygrass; 250 g ai/ha) | Plant response rating, Foxtail, Yellow (yellow foxtail; 250 g ai/ha) | Plant response rating, Barnyardgrass (barnyardgrass [1]; 250 g ai/ha) | Plant response rating, Goosegrass (goosegrass; 125 g ai/ha) | Plant response rating, Goosegrass (goosegrass; 250 g ai/ha) | Plant response rating, Waterhemp (tall waterhemp; 125 g ai/ha) | Plant response rating, Waterhemp (tall waterhemp; 250 g ai/ha)
15: Plant response rating, Barnyardgrass (barnyardgrass [1]; 62 g ai/ha) | Plant response rating, Waterhemp (tall waterhemp; 31 g ai/ha)
90: Plant response rating, Ducksalad (duck salad) | Plant response rating, Goosegrass (goosegrass; 62 g ai/ha) | Plant response rating, Umbrella Sedge (umbrella sedge)
25: Plant response rating, Bromegrass, Downy (downy bromegrass; 125 g ai/ha) | Plant response rating, Itchgrass (itchgrass; 125 g ai/ha) | Plant response rating, Itchgrass (itchgrass; 250 g ai/ha)
20: Plant response rating, Bromegrass, Downy (downy bromegrass; 62 g ai/ha) | Plant response rating, Ryegrass, Italian (Italian ryegrass; 250 g ai/ha) | Plant response rating, Sorghum (sorghum; 250 g ai/ha) | Plant response rating, Canarygrass (littleseed canarygrass; 125 g ai/ha)
0: Plant response rating, Bromegrass, Downy (downy bromegrass; 31 g ai/ha) | Plant response rating, Ryegrass, Italian (Italian ryegrass; 31 g ai/ha) | Plant response rating, Ryegrass, Italian (Italian ryegrass; 62 g ai/ha) | Plant response rating, Ryegrass, Italian (Italian ryegrass; 125 g ai/ha) | Plant response rating, Barley (winter barley; Preemergence, 62 g ai/ha, scale 0 to 100) | Plant response rating, Barley (winter barley; Preemergence, 125 g ai/ha, scale 0 to 100) | Plant response rating, Barley (winter barley; Preemergence, 31 g ai/ha, scale 0 to 100) | Plant response rating, Barley (winter barley; preemergence, 250 g ai/ha, scale 0 (no effect) to 100 (complete control)) | Plant response rating, Nutsedge, Yellow (yellow nutsedge; 31 g ai/ha) | Plant response rating, Nutsedge, Yellow (yellow nutsedge; 62 g ai/ha) | Plant response rating, Nutsedge, Yellow (yellow nutsedge; 125 g ai/ha) | Plant response rating, Nutsedge, Yellow (yellow nutsedge; 250 g ai/ha) | Plant response rating, Sorghum (sorghum; 31 g ai/ha) | Plant response rating, Sorghum (sorghum; 62 g ai/ha) | Plant response rating, Sorghum (sorghum; 125 g ai/ha) | Plant response rating, Sandbur (field sandbur; 31 g ai/ha) | Plant response rating, Sandbur (field sandbur; 62 g ai/ha) | Plant response rating, Sandbur (field sandbur; 125 g ai/ha) | Plant response rating, Canarygrass (littleseed canarygrass; 31 g ai/ha) | Plant response rating, Canarygrass (littleseed canarygrass; 62 g ai/ha) | Plant response rating, Wheat, Spring (spring wheat; 31 g ai/ha) | Plant response rating, Wheat, Spring (spring wheat; 62 g ai/ha) | Plant response rating, Wheat, Spring (spring wheat; 125 g ai/ha) | Plant response rating, Wheat, Spring (spring wheat; 250 g ai/ha) | Plant response rating, Wheat, Winter (winter wheat; 31 g ai/ha) | Plant response rating, Wheat, Winter (winter wheat; 62 g ai/ha) | Plant response rating, Wheat, Winter (winter wheat; 125 g ai/ha) | Plant response rating, Wheat, Winter (winter wheat; 250 g ai/ha) | Plant response rating, Foxtail, Yellow (yellow foxtail; 31 g ai/ha) | Plant response rating, Soybean (soybean; 31 g ai/ha) | Plant response rating, Soybean (soybean; 62 g ai/ha) | Plant response rating, Soybean (soybean; 125 g ai/ha) | Plant response rating, Soybean (soybean; 250 g ai/ha) | Plant response rating, Oat, Wild (wild oat; 31 g ai/ha) | Plant response rating, Oat, Wild (wild oat; 62 g ai/ha) | Plant response rating, Oat, Wild (wild oat; 125 g ai/ha) | Plant response rating, Oat, Wild (wild oat; 250 g ai/ha) | Plant response rating, Corn (corn; 31 g ai/ha) | Plant response rating, Corn (corn; 62 g ai/ha) | Plant response rating, Corn (corn; 125 g ai/ha) | Plant response rating, Corn (corn; 250 g ai/ha) | Plant response rating, Cupgrass, Woolly (woolly cupgrass; 31 g ai/ha) | Plant response rating, Barnyardgrass (barnyardgrass [1]; 31 g ai/ha) | Plant response rating, Foxtail, Millet (millet foxtail; 31 g ai/ha) | Plant response rating, Foxtail, Millet (millet foxtail; 62 g ai/ha) | Plant response rating, Bluegrass (annual bluegrass; 31 g ai/ha) | Plant response rating, Bluegrass (annual bluegrass; 62 g ai/ha) | Plant response rating, Itchgrass (itchgrass; 31 g ai/ha) | Plant response rating, Itchgrass (itchgrass; 62 g ai/ha) | Plant response rating, Field Violet (field violet; 31 g ai/ha) | Plant response rating, Field Violet (field violet; 62 g ai/ha) | Plant response rating, Field Violet (field violet; 125 g ai/ha) | Plant response rating, Blackgrass (blackgrass; 31 g ai/ha) | Plant response rating, Blackgrass (blackgrass; 62 g ai/ha) | Plant response rating, Blackgrass (blackgrass; 125 g ai/ha)
55: Plant response rating, Foxtail, Millet (millet foxtail; 125 g ai/ha) | Plant response rating, Foxtail, Millet (millet foxtail; 250 g ai/ha)
